In patent publication US20240239805A1, “AZA-YANG CYCLIZATION-BUCHNER AROMATIC RING EXPANSION: COLLECTIVE SYNTHESIS OF CYCLOHEPTATRIENE-CONTAINING AZETIDINE LACTONES” (University of Kansas, priority 2022, published 2024):

Tested on: U-2 OS (ATCC, HTB-96) cells
Experiment: Cell Painting: changes in cell morphology induced by synthesized compounds
Assay type: cell-based
Conditions: U-2 OS cells, 24-hour treatment; for Determination of bioactives: reproducibility of fingerprints and magnitude of the activity: Cell Painting feature vectors vs DMSO, 3 repeats, FIG. 8; for Clustering of fingerprints (similarity of fingerprints) with known bioactives: Cell Painting, cosine similarity, FIG. 9
Method: U-2 OS (ATCC, HTB-96) cells were cultured in T-75 flasks (Greiner, 658170) under McCoy's 5a medium (HIMedia, AT057), supplemented with 10% fetal bovine serum (FBS) and 1% Penicillin/Streptomycin solution, and incubated at 37° C. in a 5% CO2 atmosphere. Upon reaching 80% confluence, cells were washed, trypsinized (0.25% solution with EDTA, VWR, M143), and removed. Flasks were reseeded with one-fifth of the cell count for each passage. All cell plates reported in this paper were composed of U-2 OS from incubation lengths of five or fewer passages. 384 Black-welled plates with optically clear bottoms (Corning, 6569) were seeded with U-2 OS at a density of 1,000 cells per well and cells were allowed to incubate for 24 h to ensure adherence.
Three compound plates (Thermo Scientific, AB-1056) were constructed using an initial aliquot of a 50 mM compound solution solubilized in DMSO. Each compound aliquot was then twofold serially diluted in DMSO to yield eight concentrations ranging from 50 mM to 390 μM. This process was repeated so that compound plate 1 contained each of the 16 test (cycloheptatriene) compounds and one azetidinol, compound plate 2 contained 19 esters, and compound plate 3 contained the diazo compounds. Vehicle treatments were included in the plate design as DMSO-containing wells (around 200) with no added compound. Staurosporine diluted to 500 μM in DMSO was included on the plate as a positive control to test the transfer of compounds from pin transfer.
After a 24 h incubation period, untreated cell-containing plates and the compound plate were each fitted into a Library Copier, and a sterile Multi-Blot Replicator (V and P Scientific) was used to transfer a 100 nL volume from each well of the 384 well compound plate into the culture media (50 μL) of a corresponding well on the 384 well cell plate. These cell plates were reintroduced to a 37° C., 5% CO2 atmosphere for the duration of the 24-hour treatment period.
1 L of Hank's Buffered Saline Solution (HBSS) (1× from 10×) was prepared using 100 mL HBSS (10×) and diluted with 900 mL deionized water. The pH of the solution was adjusted to 7.2 with aqueous NaOH and filtered through a 0.2-micron filter. A 1% w/v solution of BSA (VWR, 0332) was prepared in 1×HBSS using 150 mg BSA, dissolved in 15 mL HBSS. The solution was filtered through a 0.2-micron filter. Live-cell MitoTracker (Thermo Fisher, M22426) staining solution was prepared using 6.5 μL of MitoTracker staining solution from a stock of 1 mM MitoTracker and dissolved in 13 mL of pre-warmed cell culture medium (RPMI) for a final concentration of 500 nM.
Staining dyes: a. […]

SMILES	Determination of bioactives: reproducibility of fingerprints and magnitude of the activity	Clustering of fingerprints (similarity of fingerprints) with known bioactives
CC(C)(C)OC(=O)n1cc(C23C=CC=CC=C2[C@@]2(CN4CCCC[C@H]42)OC3=O)c2ccccc21 (stereo partly shown) [Compound 1-1-3]	showed reproducible fingerprints and magnitude of the activity	–
CC[C@]1(O)C[C@H]2CN(CCc3c([nH]c4ccccc34)[C@@](C(=O)OC)(c3cc4c(cc3OC)N(C=O)[C@H]3[C@@](O)(C(=O)OC)[C@H](OC(C)=O)[C@]5(CC)C=CCN6CC[C@]43[C@@H]65)C2)C1 [vincristine]	–	cluster together
O=C1O[C@]2(CN3CCCC[C@H]32)C2=CC=CC=C[C@@]12c1ccsc1 [Compound 1-1-4]	showed reproducible fingerprints and magnitude of the activity	–
CC(=O)O[C@H]1C(=O)[C@@]2(C)[C@H]([C@H](OC(=O)c3ccccc3)[C@]3(O)C[C@H](OC(=O)[C@H](O)[C@@H](NC(=O)c4ccccc4)c4ccccc4)C(C)=C1C3(C)C)[C@]1(OC(C)=O)CO[C@@H]1C[C@@H]2O [taxol]	–	cluster together
